Reference: ChEMBL document CHEMBL4831531, “Mangostanin Derivatives as Novel and Orally Active Phosphodiesterase 4 Inhibitors for the Treatment of Idiopathic Pulmonary Fibrosis with Improved Safety” (J Med Chem, 2021)
In brackets after ≈: the same amount, converted by molar mass. Activity calls are given as the source filed them. The rule behind the calls is not given here.

What was measured:
[1] = biological target: 3',5'-cyclic-AMP phosphodiesterase 4B (Homo sapiens, UniProt Q07343); test: Inhibition of PDE4B2 (152-487) (unknown origin) expressed in Escherichia coli BL21 assessed as using [3H]-cAMP as substrate measured for 15 mins by liquid scintillation counting analysis
[2] = biological target: cGMP-dependent 3',5'-cyclic phosphodiesterase (Homo sapiens, UniProt O00408); test: Inhibition of PDE2A (580-919) (unknown origin) expressed in Escherichia coli BL21 assessed as using [3H]-cAMP as substrate measured for 15 mins by liquid scintillation counting analysis
[3] = biological target: cGMP-inhibited 3',5'-cyclic phosphodiesterase 3A (Homo sapiens, UniProt Q14432); test: Inhibition of PDE3A (679-1087) (unknown origin) expressed in Escherichia coli BL21 assessed as using [3H]-cAMP as substrate measured for 15 mins by liquid scintillation counting analysis
[4] = biological target: cGMP-specific 3',5'-cyclic phosphodiesterase (Homo sapiens, UniProt O76074); test: Inhibition of PDE5A1 (535-860) (unknown origin) expressed in Escherichia coli BL21 assessed as using […] as substrate measured for 15 mins by liquid scintillation counting analysis
[5] = biological target: High affinity cGMP-specific 3',5'-cyclic phosphodiesterase 9A (Homo sapiens, UniProt O76083); test: Inhibition of PDE9A2 (181-506) (unknown origin) expressed in Escherichia coli BL21 assessed as using […] as substrate measured for 15 mins by liquid scintillation counting analysis
[6] = biological target: cAMP and cAMP-inhibited cGMP 3',5'-cyclic phosphodiesterase 10A (Homo sapiens, UniProt Q9Y233); test: Inhibition of PDE10A2 (449-770) (unknown origin) expressed in Escherichia coli BL21 assessed as using [3H]-cAMP as substrate measured for 15 mins by liquid scintillation counting analysis
[7] = Tmax in Sprague-Dawley rat at 10 mg/kg, po; assay type: ADME, organism-based; details: in vivo
[8] = Cmax in Sprague-Dawley rat at 5 mg/kg, po; assay type: ADME, organism-based; design: route oral, dose 5 mg/kg; details: in vivo
[9] = Cmax in Sprague-Dawley rat at 10 mg/kg, po; assay type: ADME, organism-based; design: route oral, dose 10 mg/kg; details: in vivo
[10] = AUC (0 to t) in Sprague-Dawley rat at 10 mg/kg, po; assay type: ADME, organism-based; design: dose 10 mg/kg; details: in vivo
[11] = AUC (0 to infinity) in Sprague-Dawley rat at 10 mg/kg, po; assay type: ADME, organism-based; design: route oral, time infinity, dose 10 mg/kg; details: in vivo
[12] = Metabolic stability in rat liver microsomes assessed as half life; assay type: ADME, Microsome
[13] = biological target: T1, Cytochrome P450 1A2 (Homo sapiens, UniProt P05177); test: Inhibition of human hepatic CYP1A2; assay type: ADME, tissue-based, Liver
T1 sequence (P05177 whole entry): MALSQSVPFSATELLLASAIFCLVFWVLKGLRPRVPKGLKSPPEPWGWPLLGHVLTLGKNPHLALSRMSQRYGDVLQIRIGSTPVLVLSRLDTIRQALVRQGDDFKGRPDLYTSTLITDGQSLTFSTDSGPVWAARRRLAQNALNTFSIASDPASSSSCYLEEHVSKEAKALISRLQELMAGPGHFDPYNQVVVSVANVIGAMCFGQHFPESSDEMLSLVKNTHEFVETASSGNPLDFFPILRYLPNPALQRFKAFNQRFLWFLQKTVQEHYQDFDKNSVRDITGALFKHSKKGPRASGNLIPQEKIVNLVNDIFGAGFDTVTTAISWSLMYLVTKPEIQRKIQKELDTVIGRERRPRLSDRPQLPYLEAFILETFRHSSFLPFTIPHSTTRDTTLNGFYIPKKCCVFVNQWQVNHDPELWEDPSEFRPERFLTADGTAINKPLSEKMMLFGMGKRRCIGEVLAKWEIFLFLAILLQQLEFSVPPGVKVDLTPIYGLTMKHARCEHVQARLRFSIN

[14] = biological target: T2, Cytochrome P450 2B6 (Homo sapiens, UniProt P20813); test: Inhibition of human hepatic CYP2B6; assay type: ADME, tissue-based, Liver
T2 sequence (P20813 whole entry): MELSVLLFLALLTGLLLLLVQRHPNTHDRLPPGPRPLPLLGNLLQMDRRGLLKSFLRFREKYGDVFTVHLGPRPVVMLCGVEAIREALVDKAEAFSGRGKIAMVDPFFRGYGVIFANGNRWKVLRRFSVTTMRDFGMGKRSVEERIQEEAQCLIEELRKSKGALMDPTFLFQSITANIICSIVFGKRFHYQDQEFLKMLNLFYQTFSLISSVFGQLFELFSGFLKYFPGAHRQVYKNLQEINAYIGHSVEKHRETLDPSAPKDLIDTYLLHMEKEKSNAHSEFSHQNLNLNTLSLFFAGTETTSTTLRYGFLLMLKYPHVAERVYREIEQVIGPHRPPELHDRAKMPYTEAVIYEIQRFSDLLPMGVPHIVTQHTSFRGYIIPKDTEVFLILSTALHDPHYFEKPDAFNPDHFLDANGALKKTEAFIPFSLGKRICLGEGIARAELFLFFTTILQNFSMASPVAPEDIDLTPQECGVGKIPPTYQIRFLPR

[15] = biological target: Cytochrome P450 2D6 (Homo sapiens, UniProt P10635); test: Inhibition of human hepatic CYP2D6; assay type: ADME, tissue-based, Liver
[16] = biological target: Cytochrome P450 3A4 (Homo sapiens, UniProt P08684); test: Inhibition of human hepatic CYP3A4; assay type: ADME, tissue-based, Liver
[17] = Acute toxicity in mouse at 1.5 g/Kg, po; details: in vivo, 1500 mg/kg
[18] = Toxicity in mouse assessed as change in body weight at 1.5 g/Kg, po; details: in vivo, 1500 mg/kg
[19] = Solubility of the compound in deionized water; assay type: physicochemical
[20] = test system: Rattus norvegicus; test: Anti-idiopathic pulmonary fibrotic activity in bleomycin-induced Sprague-Dawley rat model assessed as reversal of mid-expiratory flow at 10 mg/kg, po treated for 28 consecutive days relative to control; assay type: functional, organism-based
[21] = test system: Rattus norvegicus; test: Anti-idiopathic pulmonary fibrotic activity in bleomycin-induced Sprague-Dawley rat model assessed as reversal of peak expiratory flow at 10 mg/kg, po treated for 28 consecutive days relative to control; assay type: functional, organism-based
[22] = test system: Rattus norvegicus; test: Anti-idiopathic pulmonary fibrotic activity in bleomycin-induced Sprague-Dawley rat model assessed as reversal of respiratory rate at 10 mg/kg, po treated for 28 consecutive days relative to control; assay type: functional, organism-based
[23] = test system: Rattus norvegicus; test: Anti-idiopathic pulmonary fibrotic activity in bleomycin-induced Sprague-Dawley rat model assessed as reversal of enhanced pause at 10 mg/kg, po treated for 28 consecutive days relative to control; assay type: functional, organism-based
[24] = test system: Rattus norvegicus; test: Anti-idiopathic pulmonary fibrotic activity in bleomycin-induced Sprague-Dawley rat model assessed as decrease in fibronectin expression of lungs at 10 mg/kg, po treated for 28 consecutive days by Western blot analysis; assay type: functional, organism-based
[25] = test system: Rattus norvegicus; test: Anti-inflammatory activity in bleomycin-induced idiopathic pulmonary fibrotic activity Sprague-Dawley rat model assessed as decrease in NO production in lungs at 10 mg/kg, po treated for 28 consecutive days; assay type: functional, organism-based
[26] = test system: A549; test: Anti-idiopathic pulmonary fibrotic activity in human A549 cells assessed as reduction in TGF-beta-induced N-cadherin expression measured after 48 hrs by Western blot analysis; assay type: functional, cell-based; details: dose 10-20 µM
[27] = test system: A549; test: Anti-idiopathic pulmonary fibrotic activity in human A549 cells assessed as reduction in TGF-beta-induced vimentin expression measured after 48 hrs by Western blot analysis; assay type: functional, cell-based; details: dose 10-20 µM

Sequence of Cytochrome P450 3A4 (P08684 whole entry): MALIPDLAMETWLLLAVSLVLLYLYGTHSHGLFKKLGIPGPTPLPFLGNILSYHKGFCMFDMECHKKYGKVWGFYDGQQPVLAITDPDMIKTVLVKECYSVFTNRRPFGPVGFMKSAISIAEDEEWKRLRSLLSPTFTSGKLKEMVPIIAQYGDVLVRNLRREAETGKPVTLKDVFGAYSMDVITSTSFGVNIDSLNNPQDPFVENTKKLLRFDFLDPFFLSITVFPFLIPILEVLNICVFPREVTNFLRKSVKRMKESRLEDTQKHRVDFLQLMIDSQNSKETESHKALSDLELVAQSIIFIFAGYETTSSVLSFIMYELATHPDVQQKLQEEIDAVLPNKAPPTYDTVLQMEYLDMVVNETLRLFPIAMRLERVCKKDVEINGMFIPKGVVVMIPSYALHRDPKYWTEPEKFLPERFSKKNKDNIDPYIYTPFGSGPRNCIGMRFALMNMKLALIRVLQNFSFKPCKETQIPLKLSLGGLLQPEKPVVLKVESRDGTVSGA
Sequence of 3',5'-cyclic-AMP phosphodiesterase 4B (Q07343 whole entry): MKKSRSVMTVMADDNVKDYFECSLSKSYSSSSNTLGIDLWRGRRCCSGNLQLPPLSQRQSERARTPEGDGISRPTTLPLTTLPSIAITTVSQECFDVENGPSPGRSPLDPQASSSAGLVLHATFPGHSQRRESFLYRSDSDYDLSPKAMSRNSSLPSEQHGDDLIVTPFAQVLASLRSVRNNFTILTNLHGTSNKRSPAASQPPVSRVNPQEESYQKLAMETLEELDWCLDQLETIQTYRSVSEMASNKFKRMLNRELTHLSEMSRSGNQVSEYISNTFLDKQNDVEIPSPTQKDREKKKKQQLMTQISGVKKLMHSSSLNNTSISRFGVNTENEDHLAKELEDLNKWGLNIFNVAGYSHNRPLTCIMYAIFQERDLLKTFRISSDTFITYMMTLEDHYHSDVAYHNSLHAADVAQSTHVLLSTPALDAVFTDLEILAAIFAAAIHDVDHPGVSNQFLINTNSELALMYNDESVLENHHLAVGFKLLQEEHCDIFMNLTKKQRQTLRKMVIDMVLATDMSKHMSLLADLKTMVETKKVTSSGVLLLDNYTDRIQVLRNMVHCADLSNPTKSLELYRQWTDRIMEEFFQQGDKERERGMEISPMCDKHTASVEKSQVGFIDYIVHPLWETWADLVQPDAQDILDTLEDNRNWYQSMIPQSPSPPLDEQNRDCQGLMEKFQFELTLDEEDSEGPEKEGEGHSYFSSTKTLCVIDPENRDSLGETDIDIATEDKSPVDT
Sequence of cGMP-inhibited 3',5'-cyclic phosphodiesterase 3A (Q14432 whole entry): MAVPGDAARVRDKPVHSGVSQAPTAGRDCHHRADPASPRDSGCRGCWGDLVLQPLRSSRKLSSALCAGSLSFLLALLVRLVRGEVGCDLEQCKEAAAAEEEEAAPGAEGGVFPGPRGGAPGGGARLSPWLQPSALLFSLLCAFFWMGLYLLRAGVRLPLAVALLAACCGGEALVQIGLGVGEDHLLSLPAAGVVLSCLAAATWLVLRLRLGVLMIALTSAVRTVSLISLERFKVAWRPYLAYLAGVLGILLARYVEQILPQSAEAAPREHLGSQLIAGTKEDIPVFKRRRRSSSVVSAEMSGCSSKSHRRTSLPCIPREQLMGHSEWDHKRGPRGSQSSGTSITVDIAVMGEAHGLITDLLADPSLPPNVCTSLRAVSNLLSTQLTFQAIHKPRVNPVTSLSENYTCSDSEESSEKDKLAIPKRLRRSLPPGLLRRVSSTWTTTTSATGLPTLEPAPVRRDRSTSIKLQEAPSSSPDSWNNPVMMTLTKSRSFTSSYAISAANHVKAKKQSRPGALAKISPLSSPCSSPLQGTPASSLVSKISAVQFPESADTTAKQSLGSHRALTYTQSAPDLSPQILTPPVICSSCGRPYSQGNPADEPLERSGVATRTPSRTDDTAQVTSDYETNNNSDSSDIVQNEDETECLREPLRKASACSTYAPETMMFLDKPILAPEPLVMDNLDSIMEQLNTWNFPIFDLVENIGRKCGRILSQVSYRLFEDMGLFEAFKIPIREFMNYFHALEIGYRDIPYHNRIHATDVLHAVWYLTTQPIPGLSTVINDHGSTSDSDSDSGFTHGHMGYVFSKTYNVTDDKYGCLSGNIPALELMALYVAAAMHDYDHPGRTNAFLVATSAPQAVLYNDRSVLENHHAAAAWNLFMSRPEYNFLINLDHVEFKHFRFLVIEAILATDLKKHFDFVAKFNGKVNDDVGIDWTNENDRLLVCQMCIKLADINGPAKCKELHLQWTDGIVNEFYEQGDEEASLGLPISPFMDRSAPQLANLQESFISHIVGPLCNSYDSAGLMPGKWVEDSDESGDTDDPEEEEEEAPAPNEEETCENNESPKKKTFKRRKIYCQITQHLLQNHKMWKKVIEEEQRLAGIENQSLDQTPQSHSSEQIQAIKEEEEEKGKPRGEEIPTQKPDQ
Sequence of High affinity cGMP-specific 3',5'-cyclic phosphodiesterase 9A (O76083 whole entry): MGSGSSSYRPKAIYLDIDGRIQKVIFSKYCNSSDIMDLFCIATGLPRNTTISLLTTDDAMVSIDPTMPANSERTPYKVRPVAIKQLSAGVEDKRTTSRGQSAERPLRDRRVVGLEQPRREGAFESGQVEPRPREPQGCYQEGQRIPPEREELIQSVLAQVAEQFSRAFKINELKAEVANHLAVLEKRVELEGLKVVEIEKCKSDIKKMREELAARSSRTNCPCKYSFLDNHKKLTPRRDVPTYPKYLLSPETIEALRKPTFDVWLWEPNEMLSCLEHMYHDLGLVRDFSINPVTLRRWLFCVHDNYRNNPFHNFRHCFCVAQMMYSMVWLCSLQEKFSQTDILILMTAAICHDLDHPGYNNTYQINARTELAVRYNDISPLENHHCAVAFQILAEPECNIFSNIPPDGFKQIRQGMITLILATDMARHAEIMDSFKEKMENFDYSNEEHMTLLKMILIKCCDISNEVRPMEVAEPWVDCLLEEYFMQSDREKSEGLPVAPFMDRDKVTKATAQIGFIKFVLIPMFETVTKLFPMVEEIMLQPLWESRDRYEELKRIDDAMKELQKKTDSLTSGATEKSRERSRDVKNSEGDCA
Sequence of Cytochrome P450 2D6 (P10635 whole entry): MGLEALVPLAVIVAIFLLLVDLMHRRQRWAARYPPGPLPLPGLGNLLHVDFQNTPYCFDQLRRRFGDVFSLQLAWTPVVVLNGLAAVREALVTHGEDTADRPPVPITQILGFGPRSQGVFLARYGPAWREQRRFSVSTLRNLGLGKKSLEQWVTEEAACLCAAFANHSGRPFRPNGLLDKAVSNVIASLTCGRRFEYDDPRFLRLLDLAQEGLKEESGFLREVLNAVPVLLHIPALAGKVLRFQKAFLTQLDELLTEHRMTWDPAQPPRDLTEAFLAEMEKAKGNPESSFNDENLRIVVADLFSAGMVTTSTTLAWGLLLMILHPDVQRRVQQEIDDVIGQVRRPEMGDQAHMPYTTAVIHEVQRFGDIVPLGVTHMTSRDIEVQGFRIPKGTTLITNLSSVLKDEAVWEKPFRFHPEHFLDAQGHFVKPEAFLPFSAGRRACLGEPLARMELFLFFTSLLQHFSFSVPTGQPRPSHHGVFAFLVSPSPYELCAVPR
Sequence of cGMP-dependent 3',5'-cyclic phosphodiesterase (O00408 whole entry): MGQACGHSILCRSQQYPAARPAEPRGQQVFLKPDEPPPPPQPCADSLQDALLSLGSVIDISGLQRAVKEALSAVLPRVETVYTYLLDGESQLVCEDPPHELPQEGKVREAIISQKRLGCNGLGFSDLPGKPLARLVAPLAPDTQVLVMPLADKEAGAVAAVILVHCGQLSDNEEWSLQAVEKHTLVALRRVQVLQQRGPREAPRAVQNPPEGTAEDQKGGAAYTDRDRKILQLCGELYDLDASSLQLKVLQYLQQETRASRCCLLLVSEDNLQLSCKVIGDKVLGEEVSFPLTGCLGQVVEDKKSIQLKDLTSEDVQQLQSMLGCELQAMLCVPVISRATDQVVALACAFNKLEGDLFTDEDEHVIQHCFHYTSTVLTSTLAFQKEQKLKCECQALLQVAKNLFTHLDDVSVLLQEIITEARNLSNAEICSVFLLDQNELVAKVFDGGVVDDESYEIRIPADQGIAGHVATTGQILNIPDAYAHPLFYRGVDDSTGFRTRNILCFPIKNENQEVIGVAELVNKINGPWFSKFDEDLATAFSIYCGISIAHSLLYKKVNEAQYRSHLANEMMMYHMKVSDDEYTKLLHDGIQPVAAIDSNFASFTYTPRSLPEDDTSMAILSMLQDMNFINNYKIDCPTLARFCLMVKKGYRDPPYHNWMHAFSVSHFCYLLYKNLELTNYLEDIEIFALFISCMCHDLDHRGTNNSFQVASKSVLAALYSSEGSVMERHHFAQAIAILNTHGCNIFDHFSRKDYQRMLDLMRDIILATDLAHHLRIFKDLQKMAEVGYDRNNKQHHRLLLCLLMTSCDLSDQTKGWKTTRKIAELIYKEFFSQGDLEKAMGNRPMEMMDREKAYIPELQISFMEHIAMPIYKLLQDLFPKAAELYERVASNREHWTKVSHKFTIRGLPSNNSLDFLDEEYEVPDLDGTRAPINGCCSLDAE

In the case of `COc1c(OCc2ccc(F)cc2)cc2oc3cc4c(c(OC/C=C/C(=O)O)c3c(=O)c2c1CC=C(C)C)C=CC(C)(C)O4`, the IC50 [1] is reported as 140 nM, the IC50 [2] is reported as 940 nM and the IC50 [3] is reported as greater than 10000 nM. The IC50 [4] was 93 nM, the IC50 [5] was greater than 10000 nM and the IC50 [6] was 260 nM. It also gave a Tmax [7] of 1 h, a Cmax [8] of 3850 ng/mL and a Cmax [9] of 1070 ng/mL. The AUC(0-t) [10] was 2090 ng·h/mL, the AUC(0-inf) [11] was 2110 ng·h/mL and the half-life [12] was 12.2 h. It also gave an IC50 [13] greater than 25000 nM, an IC50 [14] greater than 25000 nM and an IC50 [15] greater than 25000 nM. The IC50 [16] was greater than 25000 nM, the Activity [17] was “Non-Toxic” and the Activity [18] was “Non-Toxic”. For the same compound, the solubility [19] was 1.1 µg/mL (≈ 1.83 µM), the Activity [20] was “Active” and the Activity [21] was “Active”. For the same compound, the Activity [22] was “Active”, the Activity [23] was “Active” and the Activity [24] was “Active”. The Activity [25] was “Active”, the Activity [26] was “Dose-Dependent Effect” and the Activity [27] was “Dose-Dependent Effect”.
